Source: patent US7476662B2, “Substituted tetracyclic imidazole derivatives, processes for their preparation, pharmaceutical compositions comprising them and their use as a medicine” (Janssen Pharmaceutica N.V., priority 2001, dated 2009)

Key:
[1] = tested on: Sprague-Dawley rats; experiment: Changes in relevant physiological variables during treatment after severe CHI in rats; format: in vivo, rat; conditions: median average change over entire treatment period, % change of initial value; 0.5 mg/kg/min 10 min then 0.1 mg/kg/min 50 min, started 20 min after severe CHI; n = 10
Source text: A clinically relevant rat model for traumatic brain injury was used to test the compounds according to the invention. This model mimics several clinical features of traumatic brain injury, such as increased ICP, decreased cerebral perfusion pressure, morphologic alterations including diffuse axonal injury, neuronal necrosis and contusion, impairment of autoregulation of cerebral blood flow and reduction of brain oxygenation and was applied for screening drugs with ICP-lowering effects. Trauma was induced in intubated, isoflurane anesthetized (1.5% isoflurane in a mixture of 30% O2 and 70% N2O) Sprague-Dawley rats (380-400 g) stereotaxically positioned on a table mounted on 4 springs. A 400 g steel cylinder, protected with a 9 mm diameter silicon disc, was dropped on the unprotected skull from a height of either 70 cm or 50 cm (respectively ‘severe’ and ‘moderate’ head injury). The impact area was centered between bregma and lamda. ICP was recorded using a Codman microsensor probe inserted in the parietal cortex. In both severe and moderate head injuries the ICP increased immediately after trauma and remained elevated for several days. The severe head injury mode was used for the evaluation of pharmacological effects immediately after trauma (screening procedure). When survival and recovery from anesthesia was envisaged, the moderate head injury mode was applied. In pharmacological studies, animals with a pathological ICP between 12.5 and 35 mm Hg were included. The changes in ICP, mean arterial blood pressure (MABP) and cerebral perfusion pressure CPP (=[…]) were expressed as percentage of the initial value at onset of the treatment. Screening procedure: On a weekly base, 4 treated groups of 3 rats were compared with 3 saline treated animals. Since conventional statistical methods require a larger amount of animals, a sequential procedure was used. Sequential methods operate in different stages. At each stage, a group of animals was selected as homogeneous as possible. Animals were randomly allocated to either drugs or saline. The procedure allowed to make the decision of rejecting the drug, accepting the drug as active or to continue with a new group of animals in a next stage. Given the biological relevant level of activity that must be detected, the expected fraction of false positive and negative results was known and fixed. A sequential two-sample grouped rank test was used. […] Despite the variability in the individual data, the procedure consistently accepted reference treatments such as mannitol as active, while controls were rejected.
Treatment was started at 20 min after severe head injury and involved administering a dose of 0.5 mg/kg/min during 10 minutes, followed by 0.1 mg/kg/min during 50 min.

[2] = tested on: Sprague-Dawley rats; experiment: Dose response of a 10 min infusion in the rat CHI model; format: in vivo
Source text: A clinically relevant rat model for traumatic brain injury was used to test the compounds according to the invention. This model mimics several clinical features of traumatic brain injury, such as increased ICP, decreased cerebral perfusion pressure, morphologic alterations including diffuse axonal injury, neuronal necrosis and contusion, impairment of autoregulation of cerebral blood flow and reduction of brain oxygenation and was applied for screening drugs with ICP-lowering effects. Trauma was induced in intubated, isoflurane anesthetized (1.5% isoflurane in a mixture of 30% O2 and 70% N2O) Sprague-Dawley rats (380-400 g) stereotaxically positioned on a table mounted on 4 springs. A 400 g steel cylinder, protected with a 9 mm diameter silicon disc, was dropped on the unprotected skull from a height of either 70 cm or 50 cm (respectively ‘severe’ and ‘moderate’ head injury). The impact area was centered between bregma and lamda. ICP was recorded using a Codman microsensor probe inserted in the parietal cortex. In both severe and moderate head injuries the ICP increased immediately after trauma and remained elevated for several days. The severe head injury mode was used for the evaluation of pharmacological effects immediately after trauma (screening procedure). When survival and recovery from anesthesia was envisaged, the moderate head injury mode was applied. In pharmacological studies, animals with a pathological ICP between 12.5 and 35 mm Hg were included. The changes in ICP, mean arterial blood pressure (MABP) and cerebral perfusion pressure CPP (=[…]) were expressed as percentage of the initial value at onset of the treatment. Screening procedure: On a weekly base, 4 treated groups of 3 rats were compared with 3 saline treated animals. Since conventional statistical methods require a larger amount of animals, a sequential procedure was used. Sequential methods operate in different stages. […] Given the biological relevant level of activity that must be detected, the expected fraction of false positive and negative results was known and fixed. […]

[3] = tested on: rat brain; experiment: Near-infrared spectroscopy (NIRS) of the rat brain: brain hemoglobin concentration and oxygenation after moderate head injury; format: in vivo; conditions: 24 h after moderate head injury; i.v. 0.5 mg/kg.min 10 min then 0.1 mg/kg.min 45 min
Source text: Near-infrared spectroscopy (NIRS) of the rat brain ‘in vivo’ allows to quantify non-invasively saturation of brain haemoglobin with oxygen (HbSat) and total brain haemoglobin concentration ([HbTot]). The latter is a measure for cerebral blood volume (CBV). Changes in the redox state of the mitochondrial enzyme cytochrome oxidase (CytOx), an indicator for tissue oxygenation, can also be monitored.
HbSat is not affected by compound 1 and the racemate (Comp. 1 and Comp. 2).

[4] = tested on: traumatized rats; experiment: Repeated application on elevated ICP in traumatized rats; format: in vivo, rat; conditions: i.v. 1 mg/kg/min during 10 min, repeated, FIG. 3
Experimental: Compound 1 was given 2 times with intermittent periods of 20 min at a i.v. dose of 1 mg/kg/min during 10 min, starting a first time 20 min after induction of severe head injury.
Mannitol was given i.v. in the same time windows as Compound 1 at a dose of 0.125 g/kg/min. The control animals received the solvent (containing 10% HP-β-CD, pH 4) only.
This effect is amplified after termination of each, infusion period.

[5] = tested on: rabbits; experiment: Cold lesion-induced rise of ICP in rabbits; format: in vivo, rabbit; conditions: rabbits one day after cryo-lesion
Experimental: Cryo-lesions were induced in adult rabbits to obtain a pathological ICP that is caused by tissue oedema. A 8 mm stainless steel rod was placed at predetermined coordinates on the exposed skull of deeply anaesthetised rabbits and cooled for […] with liquid nitrogen. One day later the animals were re-anaesthetised and ICP and blood pressure continuously recorded as described for the rat. After a stabilisation period of 15 min, Compound 1 was infused for 10 min at a dose of 2 mg/kg/min. Solvent (preclinical formulation containing 10% HP-β-CD, pH 4) was given for 10 min at a rate of […].

[6] = tested on: non-traumatised rats; experiment: ICP, MABP and CPP in anaesthetised non-traumatised rats; format: in vivo, rat; conditions: i.v. 0.5 mg/kg/min during 10 minutes, followed by 0.1 mg/kg/min during 50 min
Experimental: The effect of Compound 2, Compound 1 and Racemate (comp. 1 and comp. 2) on ICP, MABP and CPP was tested in anaesthetised non-traumatised rats. The compounds were administered i.v. and the same dose was given as in traumatized rats (0.5 mg/kg/min during 10 minutes, followed by 0.1 mg/kg/min during 50 min).

[7] = tested on: Rhesus monkeys; experiment: ICP in anaesthetised non-traumatised Rhesus monkeys; format: in vivo, Rhesus monkey; conditions: i.v. infusion 2.5 and 5 mg/kg over 2.5 and 5 min (n=2/condition)
Experimental: The effect of Compound 1 on ICP was tested in a limited number of anaesthetised non-traumatised Rhesus monkeys with a i.v. infusion of a dose of 2.5 and 5 mg/kg over 2.5 and 5 min respectively (n=2/condition).

Structure (SMILES): Cc1nc2n(C)c3ccccc3n2c(=O)c1CCN1CCC(C2c3ccccc3CCn3c2nc2ccccc23)CC1Cc1ccccc1 (single isomer, unassigned) [Compound 1, (B)[(2α,4β)(A)]3-[2-(4-(11,12-dihydro-6H-benzimidazo [2,1-b][3]benzazepin-6-yl)-2-(phenylmethyl)-1-piperidinyl]ethyl]-2,10-dimethyl-pyrimido[1,2-a]benzimidazol-4(10H)-one (E)-2-butenedioate (2:3) hydrate (1:1)]
- CPP (%) [1]: −1.9%
- ETCO2 (%) [1]: 2.2%
- Heart rate(%) [1]: −4.1%
- ICP (%) [1]: −15.4%
- MABP (%) [1]: −3.6%
- Resp. rate(%) [1]: 5.3%
- dose starting at which reduction in ICP is statistically significantly larger than in the solvent-treated group ([2]; 10 min infusion): ≥ 1 mg/kg/min
- effect on ICP during treatment ([2]; 10 min infusion at 0.125, 0.25, 0.5, 1 and 2 mg/kg/min, FIG. 1): sustained dose-dependent decrease of ICP
- effect on ICP in the 10 min period following the infusion ([2]; after 10 min infusion at 0.125-2 mg/kg/min, FIG. 2): highly significant dose-dependent effect on ICP remains present
- effect on saturation of brain haemoglobin with oxygen (HbSat) [3]: not affected
- effect on total brain haemoglobin concentration [HbTot] [3]: do not have a significant effect
- effect on ICP during infusion ([4]; first 20 min after severe head injury): rapid reduction of ICP
- effect on ICP after termination of each infusion period [4]: amplified
- effect on blood pressure [4]: drops during Compound 1 treatment but is restored again after this episode
- blood pressure during infusion ([5]; 2 mg/kg/min for 10 min): drops
- effect on ICP during infusion ([5]; 2 mg/kg/min for 10 min, FIG. 4): no immediate decrease in ICP
- blood pressure when drug infusion is terminated ([5]; after 2 mg/kg/min for 10 min): comes back to the initial value
- effect on ICP when drug infusion is terminated ([5]; after 2 mg/kg/min for 10 min, persists during entire recording period): significant ICP reduction
- effect on ICP, MABP and CPP [6]: comparable with those obtained in the traumatized animals
- pattern of ICP and blood pressure changes during and after infusion [7]: resembles the pattern of changes observed in cryo-lesioned rabbits
